From US20220280526A1, “AGENT FOR THE TREATMENT OF PSORIASIS” (EBERHARD KARLS UNIVERSITAET TUEBINGEN MEDIZINISCHE FAKULTAET, priority 2019, published 2022)

Key:
STAT3 lysine methylation = assay: Detection of methylated STAT3 by immunoprecipitation in HEK293T cells; assay type: cell-based; conditions: STAT3- and EZH2-overexpressing HEK293T cells, 1 h treatment
Experimental: HEK293T cells were transfected using HBS buffer and CaCl2. HaCaT cells were transfected with Lipofectamine 3000, according to the manufacturer's instructions (Thermo Fisher). 5 μg expression constructs were incubated with 3*10^5 cells for 4 h. 36-48 h post transfection, cells were harvested and analysed.
Western blot analysis was performed as described before. The following antibodies were used and purchased from Cell Signaling: anti-IκBζ (9244), anti-phospho-STAT3 at Tyr705 (9145), anti-phospho-STAT3 at Ser727 (9134), anti-STAT3 (12640), anti-p65 (8242), anti-EZH2 (5246), anti-pRB (phospho-RB at Ser807/811; 8516), anti-FoxM1 (5436), anti-H3 (4499), anti-CDK4 (12790), anti-CDK6 (13331), anti-CDK9 (2316), anti-cyclin D1 (2978), anti-cyclin D2 (3741), anti-cyclin D3 (2936), anti-cJUN (9165), anti-H3K27me3 (9733), anti-GAPDH (2118), anti-H3 (9715) and anti-β-actin (3700). Anti-β-Gal (sc377257) and anti-GFP (sc9996) were obtained from Santa Cruz Biotechnology. Anti-pEZH2 at T345 (61242) anti-pEZH2 at T487 (12820) were purchased from Active Motif and anti-pan-methyl-lysine antibody was purchased from Enzo (ADI-KAP-TF121-E). For detection of mouse IκBζ, a self-made antibody raised against peptides […] (SEQ ID NO:3) and […] (SEQ ID NO:4) was applied. […]

[1] = tested on: IL-36-mediated psoriasis-like dermatitis; assay: IL-36α-triggered psoriasis-like dermatitis mouse model, topical treatment of ears; assay type: in vivo, C57BL/6 mice
Experimental: Experiments were conducted in accordance with the German law guidelines of animal care. […] At day 7, mice were sacrificed and analysed. For IL-36α-mediated psoriasis induction, ears of male C57BL/6 mice (8-12 weeks old) were treated by intradermal injections using 1 μg murine IL-36α (aa 8-160, R&D) or PBS control for 5 consecutive days. […] Inhibitors were topically applicated 6 h before intradermal injections of IL-36α or PBS were applied. Mice were sacrificed and analysed at day 6. Ear sections from mice were fixed in 10% formalin (Carl Roth) and subsequently embedded in paraffin. 5-μm sections were prepared and incubated with the following antibodies from Cell Signaling: pSTAT3 (9145), pRB (8516) and H3K27me3 (9733). For staining of human skin samples, EZH2 antibody (Cell Signaling, 5246) was used. Antigen retrieval was performed in 1 mM EDTA pH 8.0 for pSTAT3, and 10 mM citrate buffer pH 6.0+0.5% Triton X-100 for EZH2, H3K27me3 and pRB. After incubation with peroxidase-coupled secondary antibodies, sections were stained with DAB substrate.

IκBζ expression = IκBζ expression in synchronized HaCaT cells stimulated with IL-36α; assay type: cell-based; conditions: 1 h IL-36α
Experimental: Synchronization of the cells with a double thymidine block was performed as described before. After the second thymidine block, cells were released in normal medium. At 0, 4, 10 and 14 h after release, cells were stimulated with IL-36α and/or abemaciclib for 1 h. Propidium iodide staining was performed by flow cytometry (LSRII, Becton Dickson) to detect the cell cycle phase at the time point of cell harvest.
Western blot analysis was performed as described before. The following antibodies were used and purchased from Cell Signaling: anti-IκBζ (9244), anti-phospho-STAT3 at Tyr705 (9145), anti-phospho-STAT3 at Ser727 (9134), anti-STAT3 (12640), anti-p65 (8242), anti-EZH2 (5246), anti-pRB (phospho-RB at Ser807/811; 8516), anti-FoxM1 (5436), anti-H3 (4499), anti-CDK4 (12790), anti-CDK6 (13331), anti-CDK9 (2316), anti-cyclin D1 (2978), anti-cyclin D2 (3741), anti-cyclin D3 (2936), anti-cJUN (9165), anti-H3K27me3 (9733), anti-GAPDH (2118), anti-H3 (9715) and anti-β-actin (3700). Anti-β-Gal (sc377257) and anti-GFP (sc9996) were obtained from Santa Cruz Biotechnology. Anti-pEZH2 at T345 (61242) anti-pEZH2 at T487 (12820) were purchased from Active Motif and anti-pan-methyl-lysine antibody was purchased from Enzo (ADI-KAP-TF121-E). For detection of mouse IκBζ, a self-made antibody raised against peptides […] (SEQ ID NO:3) and […] (SEQ ID NO:4) was applied.

STAT3 = STAT3 phosphorylation in primary human keratinocytes (immunoblot); assay type: cell-based; conditions: after stimulation with IL-36α
Excerpt: HaCaT cells were maintained in DMEM with 10% FCS and antibiotics. Human primary keratinocytes were freshly isolated from foreskin and maintained in CnT-07S medium with gentamycin (CELLnTEC). Recombinant human IL-36α (aa 6-158) and mouse IL-36α (aa 6-160) were purchased from R&D Systems. Recombinant IL-17A (11340174), TNFα (11343013) and IL-1β (11340013) were ordered from Immunotools. Flagellin (vac-fla) and poly I:C (vac-pic) were purchased from Invivogen. In cell culture experiments, the cytokines were used at the following concentrations, as described previously: IL-36α (100 ng/mL), IL-17A (200 ng/mL), TNFα (10 ng/mL) and IL-1β (100 ng/mL). Flagellin was applied at 10 ng/mL and poly(I:C) was added at a final concentration of 100 ng/mL. […] When indicated, cells were starved for 2 h prior to cytokine treatment, by removing cell culture supplements from the growth medium.
Western blot analysis was performed as described before. […]

Abemaciclib mesylate
lysine methylation of STAT3 (STAT3 lysine methylation): abrogated | IL-36-mediated expression of IκBζ, phosphorylation of EZH2 at T345 and activation of STAT3 (pSTAT3 Y705) in skin ([1]; immunoblot of ear skin at day 6): suppressed | keratinocyte hyperproliferation and immune cell infiltration ([1]; intradermal IL-36α 5 days, topical inhibitor, abemaciclib 0.02 mg, CPI-169 0.05 mg, day 6): effectively blocked | IκBζ target gene expression and key cytokine expression (Il17a, Il23a) ([1]; qPCR of skin samples): effectively blocked | IL-36α-triggered IκBζ induction in all phases of the cell cycle (IκBζ expression): completely suppressed | phosphorylation of STAT3 at threonine 727 (T727) (STAT3): remained unaffected | phosphorylation of STAT3 at tyrosine 705 (Y705) (STAT3): completely absent
